Experimental data: patent US12419892B2, “Pharmaceutical compositions comprising nilotinib” (XSPRAY PHARMA AB, priority 2023, dated 2025)

Key:
[1] = cited from earlier work
[2] = literature (Li, Singamsetti, Puppala); cited from earlier work
[3] = Genotoxicity classification of Nilotinib impurity A; conditions: not disclosed
Description: Regulatory agencies, such as the FDA and the European Medicines Agency (EMA), have specific guidelines and regulations for assessing and managing the risks associated with genotoxic compounds, particularly in the context of pharmaceuticals and chemical safety.

| SMILES | pKa [1] | genotoxicity classification [2] | genotoxicity, internal evaluations [3] |
| --- | --- | --- | --- |
| O=C1O[C@H]([C@@H](O)CO)C(O)=C1O [Ascorbic acid, ascorbic acid] | about 4.2 |  |  |
| Cc1cn(-c2cc(N)cc(C(F)(F)F)c2)cn1 [Nilotinib impurity A, 3-(4-methylimidazol-1-yl)-5-(trifluoromethyl) aniline] |  | potentially genotoxic or mutagenic | may not be genotoxic |
